Earlier results, collected in patent US20200368163A1, “EN[…]-DISPERSIBLE CANNABINOID NANOPARTICLE COMPOSITIONS, METHODS AND SYSTEMS” (The Trustees of Princeton University, priority 2019, published 2020).

Compound: C=C(C)[C@@H]1CCC(C)=C[C@H]1c1c(O)cc(CCCCC)cc1O [CBD, Cannabidiol]
- log P: ~6
